Measured values reported in patent publication US20250295096A1, “A RODENT MODEL OF FIBRODYSPLASIA OSSIFICANS PROGRESSIVA” (REGENERON PHARMACEUTICALS, INC., priority 2022, published 2025).

Test system: Acvr1^huecto[R206H]FIEx;[S330P]/+; Nanog-Cre mice ("FOP mice")
Assay: Anti-Activin A antibody treatment of FOP mice: survival and HO formation
Type: in vivo, mouse
Experimental: Wild type mice and Acvr1^huecto[R206H]FIEx;[S330P]/+; Nanog-Cre mice (“FOP mice”) were treated with an anti-Activin A monoclonal antibody (Garetosmab) or an isotype control antibody.
Wild type mice and Acvr1^huecto[R206H]FIEx;[S330P]/+; Nanog-Cre mice (“FOP mice”) were treated with an anti-Activin A monoclonal antibody (Garetosmab) and an isotype control antibody. […] The deaths in untreated FOP mice are believed to be possibly due to jaw HO.

Garetosmab: anti-Activin A monoclonal antibody
HO formation (compared with isotype control antibody): inhibited HO formation
survival (treatment initiated at 2 weeks of age, survival through 8 weeks of age): 100%
